In patent publication US4990531A, “Derivatives of 1-arylsulphonyl-2-pyrrolidinone and their use as medicaments” (Roussel Uclaf, priority 1988, dated 1991):
pIC50: −log10 of the molar value.

What was measured:
[1] = biological target: T1, muscarine receptors, involved in the contractions of the colon (Rattus norvegicus, UniProt P08483); assay: Antagonist affinity and type of antagonism (Schild), isolated colon of rat; settings: for "Slope" of Schild plot, isolated colon of rat / Kb: cumulative acetylcholine, Schild's method, contact 5 min; for Kb: read-out: pA2, isolated colon of rat (converted); for displacement of the dose-response curve of acetylcholine: isolated colon of rat, in words
T1 construct: segments of the colon of rats of about 2.5 cm; from tissue; host or cells: isolated rat colon segments
Description: The following method was used: segments of the colon of rats of about 2.5 cm are washed and suspended in an insulated bath containing 10 ml of a solution of De Jalon having the following composition: (mM): NaCl 154; KCl 5.7; CaCl2 0.27; NaHCO3 5.9 and glucose 2.5. The temperature of the bath is maintained at 32° C. In these conditions, while maintaining the preparation under a tension of 1 g, the spontaneous activity of the colon is minimal. After a stabilization period of at least 30 minutes, the tension variations are recorded using an isometric transducer connected to a recorder. A series of tests was carried out to evaluate the antagonist activity in relation to the contractions induced by a maximum dose of acetylcholine. (3×10^-6 M).
For each compound the dose-response curves are obtained with 4 to 6 different concentrations and 3 to 5 independent tests.
In a second series of tests the acetylcholine is added to the bath in cumulative doses according to the van Rossum method (J. M. van Rossum, Arch, Int. Pharmacodyn. 143, 299, 1963). Having obtained two equal and consecutive dose-response curves with acetylcholine, a third dose-responsecurve is obtained in the presence of the compound (contact time of compound before acetylcholine=5 min.) Each compound was tested with 3-4 different concentrations
The antagonist affinity and the type of antagonism (competitive, non-competitive) for the muscarine receptors was calculated according to Schild's method (H. D. Schild, Brit. J. Pharmacol. 2, 189, 1947).

adrenoreceptor beta 2 = adrenoreceptor beta 2 (Homo sapiens, UniProt P07550); assay: Affinity for other receptors: adrenoreceptor beta 2; format: binding; settings: negligible affinity
dopamine receptor = assay: Affinity for other receptors: dopamine; format: binding; settings: negligible affinity
opiated receptor mu = opiated receptor mu (Homo sapiens, UniProt P35372); assay: Affinity for other receptors: opiated receptor mu; format: binding; settings: negligible affinity
[2] = system: contractions induced by histamine, isolated ileum; assay: Antagonism of histamine-induced contractions, isolated guinea-pig ileum; settings: histamine 1×10^-5 M; contact time one minute; read-out: Antagonism with various agents (IC50): Istam.
Description: (§1) The interaction of the compounds with various receptors was evaluated on the isolated ileum of a guinea-pig according to the following method.
(§2) Segments of the ileum of guinea-pigs of 2.5-3 cm were washed and immediately suspended in a bath containing 10 ml of Tyrode's solution at 37° C. and aerated with a mixture of oxygen (95%) and carbon dioxide (5%). After a stabilization period of at least 30 minutes contractions were recorded, while the preparation was maintained under constant tension of 1 g, by means of a detector connected to a polygraph. The agonistic action was evaluated by leaving the compound in contact with the isolated tissue for a period necessary to show the maximum […]; then it was washed with the Tyrode's solution. The following dose was added only after the preparation had returned to its base line. Arecoline was used as a reference product. The antagonist action was evaluated on the contractions induced by acetylcholine (1×10^-6 M), histamine (1×10^-5 M), serotonine (1×10^-6 M) and barium chloride (2×10^-4 M). […] The contact time before adding the agonist was one minute.
(§3) For each compound the does response curves are obtained with 4 to 6 different concentrations and 3 to 5 independent tests. The agonist activity is expressed by pD2 (negative logarithm of the dose which produces 50% of the maximum effect).

[3] = system: contractions induced by acetylcholine, isolated ileum; assay: Antagonism of acetylcholine-induced contractions, isolated guinea-pig ileum; settings: acetylcholine 1×10^-6 M; contact time one minute; read-out: Antagonism with various agents (IC50): Ach.
Description: as §1, §2, §3

Muscarine receptor 1 = biological target: T2, Muscarine receptor 1 (Rattus norvegicus, UniProt P08482); assay: Bonding with cerebral receptors: muscarine receptor 1 (3H pirenzepine, rat cortex); format: binding; settings: 0.25 nM 3H pirenzepine, 60 min, 25° C., pH 7.4; read-out: Affinity for muscarine receptor M1 (/3H/Pirenzepine), IC50
T2 construct: prepared from cortex removed from the brains of a male rat; from tissue; host or cells: rat cerebral cortex homogenate (male rat, Iffa Credo)
Description: This is prepared from cortex removed from the brains of a male rat weighing 150 to 200 g, (Iffa Credo) pulverized with Polytron in a buffer Na/K 10 mM pH 7.4. After incubation (aliquots of 0.5 ml of homogenate) for 60 minutes at 25° C. in the presence of 0.25 nM of ^3 H pirenzepine, either alone, or with the product under test, or with an excess of pirenzepine at 10^-5 M (in order to determine the non-specific radioactivity fixed), the incubates are cooled and filtered.
The filtration is carried out on Whatman GF/C filters prewashed in a solution of polyethylene-imine at 0.05%. The filters are rinsed with 3×5 ml of phosphate Na/K buffer 10 mM pH 7.4, then measurements are made by liquid scintillation.

T1 sequence (P08483 whole entry): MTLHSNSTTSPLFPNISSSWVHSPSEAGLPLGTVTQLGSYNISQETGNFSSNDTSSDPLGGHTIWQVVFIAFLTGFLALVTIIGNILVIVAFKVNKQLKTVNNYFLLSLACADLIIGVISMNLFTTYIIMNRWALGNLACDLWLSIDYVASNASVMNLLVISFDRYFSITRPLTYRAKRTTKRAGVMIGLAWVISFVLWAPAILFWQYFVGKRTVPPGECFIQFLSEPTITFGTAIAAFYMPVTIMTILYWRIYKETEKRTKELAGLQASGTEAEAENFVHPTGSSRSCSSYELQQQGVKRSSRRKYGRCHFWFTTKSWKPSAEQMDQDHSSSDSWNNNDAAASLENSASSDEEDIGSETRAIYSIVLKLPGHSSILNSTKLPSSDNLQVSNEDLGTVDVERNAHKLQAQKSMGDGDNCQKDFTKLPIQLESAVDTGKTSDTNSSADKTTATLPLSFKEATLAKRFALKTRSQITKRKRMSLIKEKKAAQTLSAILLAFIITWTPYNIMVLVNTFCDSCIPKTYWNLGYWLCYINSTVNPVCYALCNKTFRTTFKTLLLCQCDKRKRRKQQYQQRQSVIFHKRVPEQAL
T2 sequence (P08482 whole entry): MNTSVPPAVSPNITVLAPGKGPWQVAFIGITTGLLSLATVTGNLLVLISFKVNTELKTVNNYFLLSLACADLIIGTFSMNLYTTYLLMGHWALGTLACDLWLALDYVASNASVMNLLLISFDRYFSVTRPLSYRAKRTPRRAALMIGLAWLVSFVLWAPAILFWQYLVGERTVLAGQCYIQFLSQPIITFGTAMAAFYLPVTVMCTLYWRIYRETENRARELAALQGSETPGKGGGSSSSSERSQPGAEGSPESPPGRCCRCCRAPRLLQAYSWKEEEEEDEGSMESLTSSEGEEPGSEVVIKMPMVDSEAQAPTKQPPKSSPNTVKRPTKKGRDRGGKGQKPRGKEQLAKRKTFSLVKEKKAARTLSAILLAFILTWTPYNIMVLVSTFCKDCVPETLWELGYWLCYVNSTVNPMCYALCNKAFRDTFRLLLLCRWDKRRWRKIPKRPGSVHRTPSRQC
adrenoreceptor beta 2, sequence (P07550 whole entry): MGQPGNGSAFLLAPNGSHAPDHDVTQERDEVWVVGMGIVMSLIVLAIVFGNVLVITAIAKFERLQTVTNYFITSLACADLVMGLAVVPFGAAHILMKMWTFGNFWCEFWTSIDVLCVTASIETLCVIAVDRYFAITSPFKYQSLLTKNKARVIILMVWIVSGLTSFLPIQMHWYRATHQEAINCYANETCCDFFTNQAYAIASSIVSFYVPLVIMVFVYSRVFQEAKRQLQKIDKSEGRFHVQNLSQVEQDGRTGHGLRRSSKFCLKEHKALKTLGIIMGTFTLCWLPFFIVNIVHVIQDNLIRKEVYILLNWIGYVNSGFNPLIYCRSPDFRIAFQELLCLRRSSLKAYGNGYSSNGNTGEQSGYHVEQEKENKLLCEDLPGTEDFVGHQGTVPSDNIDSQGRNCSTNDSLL
opiated receptor mu, sequence (P35372 whole entry): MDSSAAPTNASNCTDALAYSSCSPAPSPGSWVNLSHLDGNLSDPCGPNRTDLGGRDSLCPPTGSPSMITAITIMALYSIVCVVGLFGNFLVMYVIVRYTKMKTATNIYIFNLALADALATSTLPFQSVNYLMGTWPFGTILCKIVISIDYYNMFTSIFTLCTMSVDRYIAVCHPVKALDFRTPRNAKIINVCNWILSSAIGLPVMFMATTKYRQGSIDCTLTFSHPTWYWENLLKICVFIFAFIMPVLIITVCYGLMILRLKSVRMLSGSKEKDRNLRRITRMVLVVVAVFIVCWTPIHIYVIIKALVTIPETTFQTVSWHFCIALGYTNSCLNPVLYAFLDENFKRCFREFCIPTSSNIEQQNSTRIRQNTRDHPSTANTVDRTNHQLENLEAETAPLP

SMILES	"Slope" of Schild plot, isolated colon of rat [1]	Kb [1] [nM]	displacement of the dose-response curve of acetylcholine [1]	pIC50 (adrenoreceptor beta 2)	pIC50 (dopamine receptor)	pIC50 (opiated receptor mu)	pIC50 [2]	pIC50 [3]	pIC50 (Muscarine receptor 1)
CC(C)(C)c1ccc(S(=O)(=O)N2CCCC2=O)cc1 [Example 1, 1-(4-tert-butylbenzenesulphonyl)-2-pyrrolidinone]	0.89	17	parallel displacement towards the right of the dose-response curve of acetyl-choline without reducing the maximum contraction	5.00 to 5.30	5.00 to 5.30	5.00 to 5.30	< 4.00	7.19	6.89
CCN(CC)c1ccc(S(=O)(=O)N2CCCC2=O)cc1 [Example 2, 1-[4-(diethylamino)benzenesulphonyl]-2-pyrrolidinone]	1.08	44.7	parallel displacement towards the right of the dose-response curve of acetyl-choline without reducing the maximum contraction	5.00 to 5.30	5.00 to 5.30	5.00 to 5.30	< 4.00	7.21	7.01
